Source: PubChem BioAssay (NCI)
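These data come from cells grown in 96-well plates and exposed to compound for 48 hours at five concentrations. TGI marks complete inhibition of growth.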

Experiments:
Assay in all cases: DTP human tumour cell line panel, 48 h
EKVX NSCLC = tested on: EKVX NSCLC
OVCAR-5 ovarian = tested on: OVCAR-5 ovarian
MCF7 breast = tested on: MCF7 breast
DU-145 prostate = tested on: DU-145 prostate
NCI-H522 lung = tested on: NCI-H522 lung
OVCAR-3 ovarian = tested on: OVCAR-3 ovarian
HS 578T breast = tested on: HS 578T breast
U251 CNS = tested on: U251 CNS
HCT-116 colon = tested on: HCT-116 colon
SR leukemia = tested on: SR leukemia
KM12 colon = tested on: KM12 colon
HCC-2998 colon = tested on: HCC-2998 colon

Compound	TGI (EKVX NSCLC) [µM]	TGI (OVCAR-5 ovarian) [µM]	TGI (MCF7 breast) [µM]	TGI (DU-145 prostate) [µM]	TGI (NCI-H522 lung) [µM]	TGI (OVCAR-3 ovarian) [µM]	TGI (HS 578T breast) [µM]	TGI (U251 CNS) [µM]	TGI (HCT-116 colon) [µM]	TGI (SR leukemia) [µM]	TGI (KM12 colon) [µM]	TGI (HCC-2998 colon) [µM]
CC1(C)CC2C(/C1=N/O)C1(C)CCCC2(C)C1O (stereo not given)	> 100	> 100	> 100	> 100	> 100	> 100	> 100	> 100	> 100	> 100	> 100	–
CCOC(=O)C1=C(C)N(NC(=O)OC)C2(N)N(NC(=O)OC)C(C)=C(C(=O)OCC)C12C#N (stereo not given)	> 100	> 100	–	–	> 100	> 100	–	> 100	> 100	> 100	> 100	> 100
COc1cc(/C=C2\C(=O)N(c3ccc(NC(C)=O)cc3)C(c3ccccc3)S2(=O)=O)cc(OC)c1OC (stereo not given)	> 100	> 100	> 100	> 100	> 100	> 100	–	> 100	> 100	> 100	> 100	> 100
Cc1nnc2n1N=C(c1ccc(-c3ccc([N+](=O)[O-])cc3)o1)CS2	–	> 100	–	–	> 100	> 100	–	> 100	> 100	> 100	> 100	> 100
CCOC(=O)C(C)c1nc2cc(C(F)(F)F)ccc2[nH]c1=O (stereo not given)	> 100	> 100	> 100	> 100	–	> 100	> 100	> 100	> 100	–	> 100	> 100
C/C(CC(=O)Nc1ccccc1)=N\NC(N)=S	> 100	> 100	–	–	> 100	> 100	–	> 100	> 100	–	> 100	> 100
C/C(=C(/C)c1cc[n+](C)cc1)c1cc[n+](C)cc1	> 75	> 75	–	–	> 75	> 75	–	> 75	> 75	–	> 75	–
Brc1ccc(N=Nc2ccc3ccccc3n2)cc1	> 100	> 100	> 100	> 100	21.4	–	56.6	36.2	30.1	–	> 100	–
CCOC(=O)CNC(=O)CNC(=O)CNC(=O)CNNc1c(OCc2ccccc2)c(=O)c1=O	> 100	> 100	> 100	> 100	> 100	> 100	> 100	> 100	> 100	–	> 100	> 100
C=C(C)CCN(C(=O)OC(C)(C)C)c1cc(C(C)C)co1	> 100	> 100	> 100	> 100	–	> 100	–	> 100	> 100	> 100	> 100	> 100
CC(=O)c1c2c(cc3c1CC1(C3)Cc3cc4c(c(C(C)=O)c3C1)CCCC4)CCCC2	> 100	> 100	> 100	–	> 100	> 100	> 100	> 100	> 100	53.2	> 100	> 100
